Where two headings read alike, the source gives them in different places.
Tests used:
[1] = system: MCF10A, a nonmalignant mammary epithelial cell line; assay: Cell viability assay (PrestoBlue, 72 h), MCF10A; format: cell-based; conditions: for Survival rate at 10 uM MCF10A / MCF-10A Inhibition rate: human, 72 h, 10 µM
Procedure: (§1) The cells were seeded in 384-well clear plates with a density of 8 × 10^2 cells/well for MCF-10A and BT-549 cell lines, 1 × 10^3 cells/well for MDA-MB-453, and 2 × 10^3 cells/well for MDA-MB-231 overnight. Then cells were treated with the indicated concentrations of test compounds for 72 h. At the end of incubation, 5 μL of PrestoBlue Cell Viability Reagent (Invitrogen, Carlsbad, CA, USA) was added to each well with 50 μL medium. The plates were incubated for an additional 1.5 h at 37 °C in a humidified 5% CO2 atmosphere; the relative fluorescence unit (RFU) in the reaction mixture will then be recorded (Ex560/Em590) by Victor^2-Vplate reader (PerkinElmer, Waltham, MA, USA). The cell lines were chosen based on the mutation status of PTEN and/or TP53: MCF-10A, the nonmalignant mammary epithelial cell line; BT-549 with mutation of PTEN and TP53; MDA-MB-453 with mutation of PTEN; MDA-MB-231 with mutation of TP53[47].

BT-549 = assay: Cell viability assay (PrestoBlue, 72 h), BT-549; format: cell-based; conditions: Homo sapiens; for viability at 10 µM: BT-549, 72 h, mean of at least two determinations, within ± 15%, read-out: Survival rate at 10 uM BT-549; for IC50: BT-549
Procedure: as §1

MDA-MB-231 = assay: Cell viability assay (PrestoBlue, 72 h), MDA-MB-231; format: cell-based, human; conditions: for viability at 10 µM / IC50: Homo sapiens; for viability at 10 µM: MDA-MB-231, 72 h, mean of at least two determinations, within ± 15%, read-out: Survival rate at 10 uM MDA-MB-231; for IC50: MDA-MB-231; for Activity toward TNBC cell lines (in words): TNBC cell lines MDA-MB-231, BT-549, MDA-MB-453
Procedure: as §1

MDA-MB-453 = assay: Cell viability assay (PrestoBlue, 72 h), MDA-MB-453; format: cell-based; conditions: Homo sapiens; for viability at 10 µM: MDA-MB-453, 72 h, mean of at least two determinations, within ± 15%, read-out: Survival rate at 10 uM MDA-MB-453; for IC50: MDA-MB-453
Procedure: as §1

mu-opioid receptor (MOR) = mu-opioid receptor (MOR) (Homo sapiens, UniProt P35372); assay: FLIPR calcium assay in CHO-K1/MOR/Gα15 cells
mu-opioid receptor (MOR), sequence (P35372 whole entry): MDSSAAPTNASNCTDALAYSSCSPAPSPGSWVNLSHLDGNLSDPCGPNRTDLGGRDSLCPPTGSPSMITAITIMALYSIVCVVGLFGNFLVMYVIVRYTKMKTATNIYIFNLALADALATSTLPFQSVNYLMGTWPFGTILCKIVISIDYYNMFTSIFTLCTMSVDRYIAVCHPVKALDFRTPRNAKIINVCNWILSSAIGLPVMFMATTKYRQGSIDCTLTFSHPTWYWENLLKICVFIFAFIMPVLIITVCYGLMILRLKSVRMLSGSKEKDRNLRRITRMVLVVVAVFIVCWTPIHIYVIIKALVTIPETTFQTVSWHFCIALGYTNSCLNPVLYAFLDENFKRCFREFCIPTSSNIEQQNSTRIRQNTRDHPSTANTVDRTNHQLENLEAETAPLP

[2] = Figure 3C, unit inferred, read-out: IC50 values BT-549
[3] = Figure 3C, unit inferred, read-out: IC50 values MDA-MB-231
[4] = Figure 3C, unit inferred, read-out: IC50 values MDA-MB-453
[5] = Figure 4B, read-out: BT-549 IC50
[6] = Figure 4B, read-out: MDA-MB-231 IC50
[7] = Figure 4B, read-out: MDA-MB-453 IC50

| Compound | Cytotoxicity to MCF10A (in words) [1] | Survival rate at 10 uM MCF10A [1] [%] | viability at 10 µM (BT-549) [%] | viability at 10 µM (MDA-MB-231) [%] | viability at 10 µM (MDA-MB-453) [%] | further results |
| --- | --- | --- | --- | --- | --- | --- |
| O=C(N/N=C/c1ccccc1Cl)c1[nH]c2ccc(Cl)cc2c1-c1ccccc1 [Compound 1] | low cytotoxicity | -7 | 12 | 36 | 17 |  |
| Nc1c(C(=O)c2ccccc2)sc2nc3c(cc12)CCCC3 [Compound 2] | low cytotoxicity | -5 | 16 | 34 | 15 |  |
| Cc1cc(C)c(-c2csc(NC(=O)c3ccc(Br)cc3)n2)c(C)c1 [Compound 3] | low cytotoxicity | 44 | 101 | -14 | 21 | IC50 (BT-549; [2]): > 20 µM; IC50 (MDA-MB-231; [3]): 1.49 µM; Activity toward TNBC cell lines (in words) (MDA-MB-231): broader TNBC inhibitions; IC50 (MDA-MB-453; [4]): 5.19 µM |
| Cc1ccc(-c2csc(NC(=O)c3ccc(F)cc3)n2)c(C)c1 [Compound 4] | low cytotoxicity | 101 | 106 | 35 | 53 |  |
| CCN(C(=O)c1sc(NC(=O)CCl)c(C#N)c1C)C1CCCCC1 [Compound 5] | low cytotoxicity | 16 | 10 | -12 | -16 |  |
| Cn1ncc(Cl)c1C(=O)Nc1ccc2nc(NC(=O)C3CCCCC3)sc2c1 [Compound 6] | low cytotoxicity | 6 | 22 | 33 | 19 |  |
| CCN(CC)S(=O)(=O)c1ccc(C(=O)Nc2nc(-c3ccc(Cl)c(Cl)c3)cs2)cc1 [Compound 7] | low cytotoxicity | 117 | 54 | 6 | 29 | IC50 (BT-549; [2]): > 20 µM; IC50 (MDA-MB-231; [3]): 2.52 µM; Activity toward TNBC cell lines (in words) (MDA-MB-231): broader TNBC inhibitions; IC50 (MDA-MB-453; [4]): > 20 µM |
| O=C(c1ccc(Oc2ccc([N+](=O)[O-])cc2)cc1)c1ccc(Oc2ccc([N+](=O)[O-])cc2)cc1 [Compound 8] |  |  | 88 | 22 | 47 | IC50 (BT-549; [2]): > 20 µM; IC50 (MDA-MB-231; [3]): 10.7 µM; Activity toward TNBC cell lines (in words) (MDA-MB-231): broader TNBC inhibitions; IC50 (MDA-MB-453; [4]): > 20 µM |
| Cc1cccc(C(=O)Nc2nc(-c3cc(C)ccc3C)cs2)c1 [Compound 9] | low cytotoxicity | 105 | 79 | 51 | 54 |  |
| Cc1cc(C)c(C)c(-c2csc(NC(=O)c3cc([N+](=O)[O-])cc([N+](=O)[O-])c3)n2)c1C [Compound 10] |  |  | 52 | 21 | 25 | IC50 (BT-549; [2]): 7.68 µM; IC50 (MDA-MB-231; [3]): 8.4 µM; Activity toward TNBC cell lines (in words) (MDA-MB-231): broader TNBC inhibitions; IC50 (MDA-MB-453; [4]): > 20 µM |
| O=C(N/N=C/c1ccc(Br)cc1)c1cc2ccccc2[nH]1 [Compound 11] | low cytotoxicity | 18 | 26 | 56 | 29 |  |
| COC(=O)Nc1nc2ccc(C(=O)c3ccccc3)cc2[nH]1 [Compound 12] | low cytotoxicity | 13 | 17 | 35 | 22 |  |
| Cc1ccc(-c2csc(NC(=O)c3ccc(F)cc3)n2)c(C)c1 [Compound 15] |  |  |  |  |  | MCF-10A Inhibition rate [1]: -8%; IC50 (BT-549; [5]): > 10 µM; IC50 (MDA-MB-231; [6]): 1.89 µM; IC50 (MDA-MB-453; [7]): 9.28 µM |
| COc1ccc(C(=O)Nc2nc(-c3ccc(C)cc3C)cs2)cc1 [Compound 16] |  |  |  |  |  | MCF-10A Inhibition rate [1]: 8%; IC50 (BT-549; [5]): > 10 µM; IC50 (MDA-MB-231; [6]): 1.4 µM; IC50 (MDA-MB-453; [7]): 6.3 µM |
| COC(=O)c1ccc(C(=O)Nc2nc(-c3ccc(C)cc3C)cs2)cc1 [Compound 18] |  |  |  |  |  | MCF-10A Inhibition rate [1]: 4%; Selectivity over nonmalignant mammary epithelial cell (in words) ([1]; versus MDA-MB-231): good selectivity; IC50 (BT-549; [5]): > 10 µM; IC50 (MDA-MB-231; [6]): 0.62 µM; IC50 (MDA-MB-453; [7]): > 10 µM |
| Cc1ccc(-c2csc(NC(=O)c3ccsc3)n2)c(C)c1 [Compound 19] |  |  |  |  |  | MCF-10A Inhibition rate [1]: 14%; IC50 (BT-549; [5]): > 10 µM; IC50 (MDA-MB-231; [6]): 2.68 µM; IC50 (MDA-MB-453; [7]): > 10 µM |
| Cc1ccc(-c2csc(NC(=O)c3cc(C)on3)n2)c(C)c1 [Compound 20] |  |  |  |  |  | MCF-10A Inhibition rate [1]: 14%; IC50 (BT-549; [5]): > 10 µM; IC50 (MDA-MB-231; [6]): > 10 µM; IC50 (MDA-MB-453; [7]): > 10 µM |
| O=C(Nc1ncc(-c2ccncc2)s1)c1ccc(F)cc1 [Compound 22] |  |  |  |  |  | MCF-10A Inhibition rate [1]: -5%; IC50 (BT-549; [5]): > 10 µM; IC50 (MDA-MB-231; [6]): > 10 µM; Activity toward TNBC cell lines (in words) (MDA-MB-231): did not show activities; IC50 (MDA-MB-453; [7]): > 10 µM |
| COc1ccc(C(=O)Nc2ncc(-c3ccncc3)s2)cc1 [Compound 23] | exhibited cytotoxicity |  |  |  |  | MCF-10A Inhibition rate [1]: 35%; IC50 (BT-549; [5]): 2.6 µM; IC50 (MDA-MB-231; [6]): 3.98 µM; Activity toward TNBC cell lines (in words) (MDA-MB-231): moderate micro molar activities; IC50 (MDA-MB-453; [7]): 7.93 µM |
| CN(CCNC(=O)c1ccc(C(=O)NCCN(C)Cc2ccccc2)cc1)Cc1ccccc1 [Compound 24] |  |  |  |  |  | EC50 (mu-opioid receptor (MOR)): 5.71 µM |
| Cc1ccc2c(Cl)c(C(=O)NCC(c3ccccc3Cl)N(C)C)sc2c1 (stereo not shown) [Compound 25] |  |  |  |  |  | EC50 (mu-opioid receptor (MOR)): 6.12 µM |
| O=C(Nc1ccc(S(=O)(=O)NC2CCCCC2)cc1)C1CCCCC1 [Compound 26] |  |  |  |  |  | EC50 (mu-opioid receptor (MOR)): 0.56 µM |
| Cc1ccc(C(=O)Nc2cnc3ccccc3c2)cc1C [Compound 27] |  |  |  |  |  | EC50 (mu-opioid receptor (MOR)): 4.32 µM |
| Cc1cc(N2CCN(C)CC2)nc(N2CCN(C(=O)c3ccc(C)c(C)c3)CC2)n1 [Compound 28] |  |  |  |  |  | EC50 (mu-opioid receptor (MOR)): 8.05 µM |

Reference: article PMC7545175 (Scientific Reports, 2020)
